In ChEMBL document CHEMBL1150835, “In vitro antiplasmodial activity of extracts of Tristaniopsis species and identification of the active constituents: ellagic acid and 3,4,5-trimethoxyphenyl-(6'-O-galloyl)-O-beta-D-glucopyranoside” (J Nat Prod, 2001):
In brackets after ≈: the same amount, converted by molar mass.

What was measured:
Plasmodium falciparum [1] = assay: Antiplasmodial activity after 24 hrs against chloroquine-resistant, mefloquine-sensitive Plasmodium falciparum W2 infected human erythrocytes by [G-3H]hypoxanthine uptake; format: functional, organism-based; settings: W2, 24 h
[2] = Cytotoxicity against HSF assessed as decrease in proliferation at 100 uM by MTT assay; parameters: scale not given: the % may be the effect or the level left; settings: human
HepG2 = assay: (§1) Cytotoxicity against human HepG2 cells assessed as decrease in proliferation at 100 uM by MTT assay; format: cell-based; settings: hepg2, 100 µM
Plasmodium falciparum [3] = assay: Antiplasmodial activity after 24 hrs against chloroquine-sensitive, mefloquine-resistant Plasmodium falciparum D6 infected human erythrocytes by [G-3H]hypoxanthine uptake; format: functional, organism-based; settings: D6, 24 h
[4] = as §1; format: cell-based; settings: HepG2 cells, read-out: Activity

SMILES	IC50 (Plasmodium falciparum [1])	Activity [2]	Activity (HepG2)	IC50 (Plasmodium falciparum [3])	inhibition at 100 µM [4]
OC(c1cc(C(F)(F)F)nc2c(C(F)(F)F)cccc12)C1CCCCN1 (configuration not stated) [MEFLOQUINE]	0.00136 µg/mL (≈ 0.00359 µM)	–	–	–	–
COc1cc(O[C@@H]2O[C@H](COC(=O)c3cc(O)c(O)c(O)c3)[C@@H](O)[C@H](O)[C@H]2O)cc(OC)c1OC	1.58 µg/mL (≈ 3.18 µM)	Non-toxic	Non-toxic	1.75 µg/mL (≈ 3.5 µM)	–
O=C(O)c1cc(O)c(O)c(O)c1 [GALLIC ACID]	–	–	–	> 5 µg/mL	–
O=C(O)c1ccc(O)c(O)c1 [PROTOCATECHUIC ACID]	–	–	–	> 5 µg/mL	–
O=C(O)c1ccc(O)cc1 [PARABEN]	–	–	–	> 5 µg/mL	–
O=c1oc2c(O)c(O)cc3c(=O)oc4c(O)c(O)cc1c4c23 [ELLAGIC ACID]	0.103 µg/mL (≈ 0.341 µM)	20%	–	0.145 µg/mL (≈ 0.48 µM)	9%
